In brackets after ≈: the same amount, converted by molar mass.
What was measured:
[1] = system: Escherichia coli; test: Effective dose against Escherichia coli KC14 strain in mouse; assay type: functional
[2] = system: Staphylococcus aureus; test: Minimum inhibitory concentration against Staphylococcus aureus Smith; assay type: functional
[3] = system: Pseudomonas aeruginosa; test: Minimum inhibition concentration against Pseudomonas aeruginosa U-31 strain; assay type: functional
[4] = system: Enterococcus faecalis; test: Minimum inhibition concentration against Enterococcus faecalis LS-101 strain; assay type: functional
[5] = system: Mus musculus; test: Percentage of mice with convulsion (400 mg/kg fenbufen); assay type: functional
[6] = system: Streptococcus pneumoniae; test: Minimum inhibition concentration against Streptococcus pneumoniae Type I strain; assay type: functional
[7] = system: Staphylococcus aureus; test: Minimum inhibition concentration against Staphylococcus aureus FDA209P strain; assay type: functional
[8] = system: Escherichia coli; test: Minimum inhibition concentration against Escherichia coli NIHJ JC-2 strain; assay type: functional
[9] = system: Escherichia coli; test: Minimum inhibitory concentration against Escherichia coli KC14 strain; assay type: functional
[10] = biological target: GABA-A receptor; anion channel; test: Inhibition of [3H]muscimol binding to GABA A receptor 4-biphenylacetic acid at 10 e-4 M; assay type: protein-complex assay
[11] = system: Mus musculus; test: Percentage of mice with convulsion with compound alone at 400 mg/kg; assay type: functional
[12] = biological target: GABA-A receptor; anion channel; test: Inhibition of [3H]muscimol binding to GABA A receptor with compound alone at 10 e-4 M; assay type: protein-complex assay
[13] = The compound was evaluated for the solubility in water at 25 degrees Centigrade; assay type: ADME
[14] = system: Staphylococcus aureus; test: Minimum inhibition concentration against Staphylococcus aureus MRSA strain; assay type: functional
[15] = biological target: T1, GABA-A receptor; anion channel (Homo sapiens) (UniProt P14867+P47870+P18507+P28472+P48169+Q99928+Q9UN88+P34903+O00591+O14764+Q8N1C3+P18505+P78334+P47869+P31644+Q16445); test: Percentage of GABA-induced chloride currents with compound alone at 10 e-4 M; assay type: functional; conditions: Bull Frog
[16] = system: Staphylococcus aureus; test: Effective dose against Staphylococcus aureus smith strain in mouse; assay type: functional
[17] = biological target: T1, GABA-A receptor; anion channel (Homo sapiens); test: Percentage of GABA-induced chloride currents with 10 e-5 M 4-biphenylacetic acid; assay type: functional; conditions: Bull Frog
[18] = biological target: T1, GABA-A receptor; anion channel (Homo sapiens); test: Percentage of GABA-induced chloride currents with 10e-4 M 4-biphenylacetic acid; assay type: functional; conditions: Bull Frog
[19] = biological target: GABA-A receptor; anion channel; test: Inhibition of [3H]muscimol binding to GABA A receptor with 10 e-4 M 4-biphenylacetic acid; assay type: protein-complex assay
[20] = biological target: T1, GABA-A receptor; anion channel (Homo sapiens); test: Percentage of GABA-induced chloride currents, compound with 10E-4 M 4-biphenylacetic acid; assay type: functional; conditions: Bull Frog

Row | Structure (SMILES) | MIC [3] [µg/mL] | MIC [4] [µg/mL] | Convulsion [5] [%] | MIC [6] [µg/mL] | MIC [7] [µg/mL] | MIC [8] [µg/mL] | Convulsion [11] [%] | IC50 [12] [µM] | MIC [14] [µg/mL] | Currents [15] [%] | Currents [17] [%] | also measured
1 | CCn1cc(C(=O)O)c(=O)c2cc(F)c(N3CCNCC3)cc21 [NORFLOXACIN] | 0.39 (≈ 1.22 µM) | 0.78 (≈ 2.44 µM) | 100 | 3.13 (≈ 9.8 µM) | 0.39 (≈ 1.22 µM) | 0.1 (≈ 0.313 µM) | 0 | 13 | 12.5 (≈ 39.1 µM) | 38 | 0 | ED50 [1]: 0.054 mg mouse-1; MIC [2]: 0.2 µg/mL (≈ 0.626 µM); MIC [9]: 0.05 µg/mL (≈ 0.157 µM); IC50 ([10]; read-out: IC50): 0.02 µM; solubility [13]: 290 µg/mL (≈ 908 µM); ED50 [16]: 1 mg mouse-1
2 | CCn1cc(C(=O)O)c(=O)c2cc(F)c(N3CCOCC3)cc21 | 3.13 (≈ 9.77 µM) | 3.13 (≈ 9.77 µM) | 0 | 12.5 (≈ 39 µM) | 0.2 (≈ 0.624 µM) | 0.78 (≈ 2.44 µM) | 0 | > 100 | 0.39 (≈ 1.22 µM) | 100 | 100 | Currents [18]: 92%; IC50 [19]: > 100 µM
3 | CCNCC1CN(c2c(F)cc3c(=O)c(C(=O)O)cn(C4CC4)c3c2F)CCO1 (stereo unspecified) | 3.13 (≈ 7.68 µM) | 0.2 (≈ 0.491 µM) | – | 0.05 (≈ 0.123 µM) | 0.1 (≈ 0.245 µM) | 0.1 (≈ 0.245 µM) | – | – | – | – | – | –
4 | O=C(O)c1cn(C2CC2)c2cc(N3CCNCC3)c(F)cc2c1=O [CIPROFLOXACIN] | 0.1 (≈ 0.302 µM) | 0.39 (≈ 1.18 µM) | 63 | 0.39 (≈ 1.18 µM) | 0.1 (≈ 0.302 µM) | – | 0 | 100 | 1.56 (≈ 4.71 µM) | 64 | 0 | ED50 [1]: 0.007 mg mouse-1; MIC [2]: 0.1 µg/mL (≈ 0.302 µM); MIC [9]: < 0.006 µg/mL; IC50 [10]: 0.41 µM; ED50 [16]: 0.354 mg mouse-1
5 | NCCC1CN(c2c(F)cc3c(=O)c(C(=O)O)cn(C4CC4)c3c2F)CCO1 (stereo unspecified) | 12.5 (≈ 31.8 µM) | 0.39 (≈ 0.991 µM) | – | 0.39 (≈ 0.991 µM) | 0.2 (≈ 0.508 µM) | 1.56 (≈ 3.97 µM) | – | – | – | – | – | –
6 | NCC1CN(c2c(F)cc3c(=O)c(C(=O)O)cn(-c4cc(F)cc(F)c4)c3c2F)CCO1 (stereo unspecified) | 6.25 (≈ 13.8 µM) | 0.39 (≈ 0.864 µM) | – | 0.2 (≈ 0.443 µM) | 0.2 (≈ 0.443 µM) | 0.39 (≈ 0.864 µM) | – | – | – | – | – | –
7 | NCC1CN(c2c(F)cc3c(=O)c(C(=O)O)cn(CCF)c3c2F)CCO1 (stereo unspecified) | 25 (≈ 64.9 µM) | 0.78 (≈ 2.02 µM) | – | 3.13 (≈ 8.12 µM) | 0.78 (≈ 2.02 µM) | 6.25 (≈ 16.2 µM) | – | – | – | – | – | –
8 | CC(=O)NCC1CN(c2c(F)cc3c(=O)c(C(=O)O)cn(C4CC4)c3c2F)CCO1 (stereo unspecified) | 12.5 (≈ 29.7 µM) | 0.78 (≈ 1.85 µM) | – | 0.78 (≈ 1.85 µM) | 0.2 (≈ 0.475 µM) | 1.56 (≈ 3.7 µM) | – | – | – | – | – | –
9 | CC1COc2c(N3CCOC(CN)C3)c(F)cc3c(=O)c(C(=O)O)cn1c23 (stereo unspecified) | 25 (≈ 66.2 µM) | 3.13 (≈ 8.29 µM) | – | 12.5 (≈ 33.1 µM) | 0.78 (≈ 2.07 µM) | 3.13 (≈ 8.29 µM) | – | – | – | – | – | –
10 | O=C(O)c1cn(C2CC2)c2c(F)c(N3CCOCC3)c(F)cc2c1=O | 0.78 (≈ 2.23 µM) | 0.78 (≈ 2.23 µM) | 0 | 0.39 (≈ 1.11 µM) | 0.025 (≈ 0.0714 µM) | 0.1 (≈ 0.285 µM) | 0 | > 100 | 0.05 (≈ 0.143 µM) | 91 | 91 | ED50 [1]: 0.056 mg mouse-1; MIC [2]: 0.05 µg/mL (≈ 0.143 µM); MIC [9]: 0.1 µg/mL (≈ 0.285 µM); IC50 ([10]; read-out: IC50): > 100 µM; solubility [13]: 9 µg/mL (≈ 25.7 µM); ED50 [16]: 1.304 mg mouse-1; Currents [20]: 71%
11 | O=C(O)c1cn(C2CC2)c2c(F)c(N3CCNCC3)c(F)cc2c1=O | 0.1 (≈ 0.286 µM) | 0.2 (≈ 0.573 µM) | 88 | 0.39 (≈ 1.12 µM) | 0.1 (≈ 0.286 µM) | 0.006 (≈ 0.0172 µM) | 0 | 64 | 0.78 (≈ 2.23 µM) | 81 | 11 | Currents [18]: 0%; IC50 ([10]; read-out: IC50): 0.12 µM

— ChEMBL document CHEMBL1126682, “Quinolone antimicrobial agents substituted with morpholines at the 7-position. Syntheses and structure-activity relationships” (J Med Chem, 1993)
